# Test results published in ChEMBL document CHEMBL5500360, “Discovery of N-(4-((6-(3,5- Dimethoxyphenyl)-9H-purine derivatives as irreversible covalent FGFR inhibitors” (Eur J Med Chem, 2024).
# Activity calls are given as the source filed them. The rule behind the calls is not given here.
# Tests used:
# MDA-MB-231 [1] = test: Cell cycle arrest in human MDA-MB-231 cells assessed as accumulation of G0-G1 phase cells at 5 uM incubated for 24 hrs by […]PI staining based flow cytometric analysis (reference value: 41.83%); type: functional
# MDA-MB-231 [2] = test: Cell cycle arrest in human MDA-MB-231 cells assessed as accumulation of G2-M phase cells at 5 uM incubated for 24 hrs by […]PI staining based flow cytometric analysis (reference value: 16.88%); type: functional
# MDA-MB-231 [3] = test: Cell cycle arrest in human MDA-MB-231 cells assessed as accumulation of S phase cells at 5 uM incubated for 24 hrs by […]PI staining based flow cytometric analysis (reference value: 41.29%); type: functional
# MDA-MB-231 [4] = test: Induction of apoptosis in human MDA-MB-231 cells assessed as viable cells at 5 uM incubated for 24 hrs by Annexin V-FITC/PI staining based flow cytometric analysis (reference value: 99.645%); type: functional; settings: read-out: Activity
# MDA-MB-231 [5] = test: Induction of apoptosis in human MDA-MB-231 cells assessed as early apoptotic cells at 5 uM incubated for 24 hrs by Annexin V-FITC/PI staining based flow cytometric analysis (reference value: 0.131 %); type: functional
# MDA-MB-231 [6] = test: Induction of apoptosis in human MDA-MB-231 cells assessed as late apoptotic cells at 5 uM incubated for 24 hrs by Annexin V-FITC/PI staining based flow cytometric analysis (reference value: 0.161 %); type: functional
# MDA-MB-231 [7] = test: Induction of apoptosis in human MDA-MB-231 cells assessed as necrotic cells at 5 uM incubated for 24 hrs by Annexin V-FITC/PI staining based flow cytometric analysis (reference value: 0.063 %); type: functional
# MDA-MB-231 [8] = test: Induction of apoptosis in human MDA-MB-231 cells assessed as apoptotic cells at 5 uM incubated for 24 hrs by Annexin V-FITC/PI staining based flow cytometric analysis relative to control; type: functional
# MDA-MB-231 [9] = test: Inhibition of cell migration in human MDA-MB-231 cells at 2.5 uM incubated for 12 hrs by cell scratch assay; type: functional, cell-based
# MDA-MB-231 [10] = test: Induction of ROS production in human MDA-MB-231 cells at 5 uM incubated for 12 hrs by flow cytometry based confocal microscopic analysis; type: functional, cell-based
# MDA-MB-231 [11] = test: Antitumor activity against human MDA-MB-231 cells xenografted in female BALB/c athymic nude mouse assessed as tumor growth inhibition at 10 mg/kg, po administered once a day via gavage for 21 days relative to control; type: functional; settings: MDA-MB-231, 504 h, time 21 day, read-out: TGI
# MDA-MB-435 = test: cells; settings: Homo sapiens, MDA-MB-435, 72 h
# Description: Antiproliferative activity against human MDA-MB-435 cells assessed as inhibition of cell growth incubated for 72 hrs by MTT assay
# MDA-MB-231 [12] = test: cells; settings: Homo sapiens, MDA-MB-231, 72 h
# KYSE-150 cell line = test: cells; settings: Homo sapiens, KYSE-150, 72 h
# Description: Antiproliferative activity against human KYSE-150 cells assessed as inhibition of cell growth incubated for 72 hrs by MTT assay
# HepG2 = test: cells; settings: Homo sapiens, HepG2, 72 h
# in vitro = settings: human, HUVEC cells
# Description: Cytotoxicity against HUVEC cells assessed as inhibition of cell growth incubated for 72 hrs by MTT assay
smiles,measurement,setting,value
COc1cc(CCc2cc(NC(=O)c3ccc(N4C[C@@H](C)N[C@@H](C)C4)cc3)n[nH]2)cc(OC)c1 [FEXAGRATINIB],Activity,MDA-MB-231 [1],58.92%
same,Activity,MDA-MB-231 [2],14.77%
same,Activity,MDA-MB-231 [3],26.31%
same,viability at 5 µM,MDA-MB-231 [4],58%
same,Activity,MDA-MB-231 [5],29%
same,Activity,MDA-MB-231 [6],10.3%
same,Activity,MDA-MB-231 [7],2.72%
same,Activity,MDA-MB-231 [8],37.3%
same,inhibition,MDA-MB-231 [9],Active
same,Activity,MDA-MB-231 [10],Active
same,inhibition in vivo at 10 mg/kg,MDA-MB-231 [11],52.6%
same,IC50,MDA-MB-435,21.6 µM
same,IC50,MDA-MB-231 [12],7.19 µM
same,IC50,KYSE-150 cell line,8.92 µM
same,IC50,HepG2,3.13 µM
same,IC50 at 72 h,in vitro,38 µM
